Reference: publication PMC12028158, “Synthesis and In Vitro Evaluation of the Anticancer Effect of Novel Phosphonium Vindoline Derivatives” (International Journal of Molecular Sciences, 2025)
Read-outs that look alike come from different tables or passages of the source.

Assays:
Format in all cases: cell-based
CAKI-1 = assay: NCI60 five-dose screen; details: Homo sapiens
SW-620 = assay: NCI60 five-dose screen; details: Homo sapiens
NCI-H460 = assay: NCI60 five-dose screen; details: Homo sapiens
HOP-92 = assay: NCI60 one-dose screen; details: Homo sapiens
LOX IMVI [1] = assay: NCI60 one-dose screen; details: Homo sapiens, read-out: Growth percent
UACC-62 = assay: NCI60 one-dose screen; details: Homo sapiens
MDA-MB-231/ATCC = assay: NCI60 one-dose screen; details: Homo sapiens
HCC-2998 = assay: NCI60 five-dose screen; details: Homo sapiens
HL-60(TB) = assay: NCI60 one-dose screen; details: Homo sapiens
IGROV1 [2] = assay: NCI60 one-dose screen; details: Homo sapiens
NCI/ADR-RES = assay: NCI60 one-dose screen; details: Homo sapiens, read-out: Growth percent
Leukemia panel = assay: NCI60 five-dose screen, panel mean; details: Homo sapiens, read-out: GI50 Mean
HOP-62 [3] = assay: NCI60 five-dose screen; details: Homo sapiens
NCI-H522 [4] = assay: NCI60 one-dose screen; details: Homo sapiens
SK-MEL-2 = assay: NCI60 one-dose screen; details: Homo sapiens
K-562 = assay: NCI60 five-dose screen; details: Homo sapiens, K562
TK-10 = assay: NCI60 five-dose screen; details: Homo sapiens
Prostate Cancer panel = assay: NCI60 five-dose screen, panel mean; details: Homo sapiens, read-out: GI50 Mean
T-47D [5] = assay: NCI60 one-dose screen; details: Homo sapiens, T47D, read-out: Growth percent
IGROV1 [6] = assay: NCI60 five-dose screen; details: Homo sapiens, IGROV-1
CCRF-CEM [7] = assay: NCI60 five-dose screen; details: Homo sapiens
SR = assay: NCI60 one-dose screen; details: Homo sapiens, read-out: Growth percent
PC-3 = assay: NCI60 five-dose screen; details: Homo sapiens
ACHN = assay: NCI60 five-dose screen; details: Homo sapiens
SF-539 = assay: NCI60 one-dose screen; details: Homo sapiens
CCRF-CEM [8] = assay: NCI60 one-dose screen; details: Homo sapiens, read-out: Growth percent
MCF7 = assay: NCI60 one-dose screen; details: Homo sapiens
EKVX [9] = assay: NCI60 five-dose screen; details: Homo sapiens
LOX IMVI [10] = assay: NCI60 five-dose screen; details: Homo sapiens
NCI-H522 [11] = assay: NCI60 five-dose screen; details: Homo sapiens
DU-145 = assay: NCI60 one-dose screen; details: Homo sapiens
EKVX [12] = assay: NCI60 one-dose screen; details: Homo sapiens, read-out: Growth percent
A498 = assay: NCI60 one-dose screen; details: Homo sapiens
MDA-MB-468 = assay: NCI60 five-dose screen; details: Homo sapiens
RPMI-8226 = assay: NCI60 five-dose screen; details: Homo sapiens
UACC-257 = assay: NCI60 one-dose screen; details: Homo sapiens
Melanoma panel = assay: NCI60 five-dose screen, panel mean; details: Homo sapiens, read-out: GI50 Mean
T-47D [13] = assay: NCI60 five-dose screen; details: Homo sapiens, T47D
UO-31 = assay: NCI60 one-dose screen; details: Homo sapiens
RXF 393 = assay: NCI60 five-dose screen; details: Homo sapiens
U251 [14] = assay: NCI60 one-dose screen; details: Homo sapiens
U251 [15] = assay: NCI60 five-dose screen; details: Homo sapiens
MDA-MB-435 = assay: NCI60 one-dose screen; details: Homo sapiens
HS 578T = assay: NCI60 one-dose screen; details: Homo sapiens, read-out: Growth percent
OVCAR-5 = assay: NCI60 five-dose screen; details: Homo sapiens
HOP-62 [16] = assay: NCI60 one-dose screen; details: Homo sapiens
786-0 = assay: NCI60 one-dose screen; details: Homo sapiens

Q: Which results are given for CC[C@]12C=CCN3CC[C@@]4(c5ccc(OC)cc5N(C)[C@H]4[C@@](O)(C(=O)OC)[C@@H]1OC(=O)CCCC[P+](c1ccc(F)cc1)(c1ccc(F)cc1)c1ccc(F)cc1)[C@@H]32 [10c]?
A: GI50 (CAKI-1; CAKI-1, Renal Cancer, read-out: GI50): > 100 µM; GI50 (SW-620; SW-620, Colon Cancer, read-out: GI50): 16.5 µM; GI50 (NCI-H460; NCI-H460, Non-small Cell Lung Cancer, read-out: GI50): 29.4 µM; activity at 10 µM (HOP-92; HOP-92, 10 μM, one-dose, read-out: Growth percent): -12.2%; activity at 10 µM (LOX IMVI [1]; 10 μM, one-dose): 25%; activity at 10 µM (UACC-62; UACC-62, 10 μM, one-dose, read-out: Growth percent): -69.6%; activity at 10 µM (MDA-MB-231/ATCC; MDA-MB-231/ATCC, 10 μM, one-dose, read-out: Growth percent): 2.85%; GI50 (HCC-2998; HCC-2998, Colon Cancer, read-out: GI50): 12.5 µM; activity at 10 µM (HL-60(TB); HL-60(TB), 10 μM, one-dose, read-out: Growth percent): -32.2%; activity at 10 µM (IGROV1 [2]; IGROV-1, IGROV1, 10 μM, one-dose, read-out: Growth percent): -42.8%; activity at 10 µM (NCI/ADR-RES; 10 μM, one-dose): 105%; GI50 (Leukemia panel; mean over Leukemia panel): 9.86 µM; GI50 (HOP-62 [3]; HOP-62, Non-small Cell Lung Cancer, read-out: GI50): 25.5 µM; activity at 10 µM (NCI-H522 [4]; NCI-H522, 10 μM, one-dose, read-out: Growth percent): -11.6%; activity at 10 µM (SK-MEL-2; SK-MEL-2, 10 μM, one-dose, read-out: Growth percent): -54%; GI50 (K-562; K-562, Leukemia, read-out: GI50): 11.3 µM; GI50 (TK-10; TK-10, Renal Cancer, read-out: GI50): 21.2 µM; GI50 (Prostate Cancer panel; mean over Prostate Cancer panel): 25.9 µM; activity at 10 µM (T-47D [5]; T-47D, 10 μM, one-dose): 12.8%; GI50 (IGROV1 [6]; IGROV1, Ovarian Cancer, read-out: GI50): 10.8 µM; GI50 (CCRF-CEM [7]; Leukemia, read-out: GI50): 13.6 µM; activity at 10 µM (SR; 10 μM, one-dose): 28.8%; GI50 (PC-3; PC-3, Prostate Cancer, read-out: GI50): 16.4 µM; GI50 (ACHN; Renal Cancer, read-out: GI50): > 100 µM; activity at 10 µM (SF-539; SF-539, 10 μM, one-dose, read-out: Growth percent): 16%; activity at 10 µM (CCRF-CEM [8]; 10 μM, one-dose): 19.9%; activity at 10 µM (MCF7; MCF7, 10 μM, one-dose, read-out: Growth percent): 5.18%; GI50 (EKVX [9]; Non-small Cell Lung Cancer, read-out: GI50): 21 µM; GI50 (LOX IMVI [10]; Melanoma, read-out: GI50): 16.8 µM; GI50 (NCI-H522 [11]; NCI-H522, Non-small Cell Lung Cancer, read-out: GI50): 5.44 µM; activity at 10 µM (DU-145; DU-145, 10 μM, one-dose, read-out: Growth percent): 36.4%; activity at 10 µM (EKVX [12]; 10 μM, one-dose): 53%; activity at 10 µM (A498; A498, 10 μM, one-dose, read-out: Growth percent): 99.2%; GI50 (MDA-MB-468; MDA-MB-468, MDA-MB-468, Breast Cancer, read-out: GI50): 2.61 µM; GI50 (RPMI-8226; RPMI-8226, Leukemia, read-out: GI50): 2.97 µM; activity at 10 µM (UACC-257; UACC-257, 10 μM, one-dose, read-out: Growth percent): -50.7%; GI50 (Melanoma panel; mean over Melanoma panel): 12.5 µM; GI50 (T-47D [13]; T-47D, Breast Cancer, read-out: GI50): 11.5 µM; activity at 10 µM (UO-31; UO-31, 10 μM, one-dose, read-out: Growth percent): 85.9%; GI50 (RXF 393; RXF 393, Renal Cancer, read-out: GI50): 13.3 µM; activity at 10 µM (U251 [14]; U-251, U251, 10 μM, one-dose, read-out: Growth percent): 13%; GI50 (U251 [15]; U-251, U251, CNS Cancer, read-out: GI50): 10.7 µM; activity at 10 µM (MDA-MB-435; MDA-MB-435, 10 μM, one-dose, read-out: Growth percent): -16%; activity at 10 µM (HS 578T; HS 578T, 10 μM, one-dose): -2.23%; GI50 (OVCAR-5; OVCAR-5, Ovarian Cancer, read-out: GI50): 29.1 µM; activity at 10 µM (HOP-62 [16]; HOP-62, 10 μM, one-dose, read-out: Growth percent): 51%; activity at 10 µM (786-0; 786-0, 10 μM, one-dose, read-out: Growth percent): 87%

Q: Which results are given for CC[C@]12C=CCN3CC[C@@]4(c5ccc(OC)cc5N(C)[C@H]4[C@@](O)(C(=O)OC)[C@@H]1OC(=O)CCCC[P+](C1CCCCC1)(C1CCCCC1)C1CCCCC1)[C@@H]32 [10d]?
A: GI50 (CAKI-1; CAKI-1): 16.7 µM; GI50 (SW-620; SW-620): 2.75 µM; GI50 (NCI-H460; NCI-H460): 2.71 µM; activity at 10 µM (HOP-92; HOP-92, read-out: Growth percent): -44.5%; activity at 10 µM (LOX IMVI [1]): -96.1%; activity at 10 µM (UACC-62; UACC-62, read-out: Growth percent): -96.9%; activity at 10 µM (MDA-MB-231/ATCC; MDA-MB-231, read-out: Growth percent): -92.8%; GI50 (HCC-2998; HCC 2998): 1.31 µM; activity at 10 µM (HL-60(TB); HL-60, read-out: Growth percent): -36.7%; activity at 10 µM (IGROV1 [2]; IGROV-1, read-out: Growth percent): -84.7%; activity at 10 µM (NCI/ADR-RES): 96.7%; GI50 (Leukemia panel): 1.22 µM; GI50 (HOP-62 [3]; HOP-62): 3.9 µM; activity at 10 µM (NCI-H522 [4]; NCI-H522, read-out: Growth percent): -71.8%; activity at 10 µM (SK-MEL-2; SK-MEL-2, read-out: Growth percent): -88%; GI50 (K-562): 0.983 µM; GI50 (TK-10; TK-10): 3.08 µM; GI50 (Prostate Cancer panel): 2.56 µM; activity at 10 µM (T-47D [5]): 3.83%; GI50 (IGROV1 [6]): 1.36 µM; GI50 (CCRF-CEM [7]): 2.55 µM; activity at 10 µM (SR): 19.5%; GI50 (PC-3; PC-3): 1.46 µM; GI50 (ACHN): 16 µM; activity at 10 µM (SF-539; SF-539, read-out: Growth percent): -93.9%; activity at 10 µM (CCRF-CEM [8]): -60.2%; activity at 10 µM (MCF7; MCF7, read-out: Growth percent): -64.2%; GI50 (EKVX [9]): 3.13 µM; GI50 (LOX IMVI [10]): 2.9 µM; GI50 (NCI-H522 [11]; NCI-H522): 0.642 µM; activity at 10 µM (DU-145; DU-145, read-out: Growth percent): 9.57%; activity at 10 µM (EKVX [12]): 13.2%; activity at 10 µM (A498; A498, read-out: Growth percent): -0.04%; GI50 (MDA-MB-468; MDA-MB-468): 0.378 µM; GI50 (RPMI-8226; RPMI-8226): 0.412 µM; activity at 10 µM (UACC-257; UACC-257, read-out: Growth percent): -82.1%; GI50 (Melanoma panel): 1.96 µM; GI50 (T-47D [13]): 0.92 µM; activity at 10 µM (UO-31; UO-31, read-out: Growth percent): 78.9%; GI50 (RXF 393; RXF 393): 1.24 µM; activity at 10 µM (U251 [14]; U-251, read-out: Growth percent): -87.9%; GI50 (U251 [15]; U-251): 0.64 µM; activity at 10 µM (MDA-MB-435; MDA-MB-435, read-out: Growth percent): -90.5%; activity at 10 µM (HS 578T; Hs-578T): -35%; GI50 (OVCAR-5; OVCAR-5): 3.19 µM; activity at 10 µM (HOP-62 [16]; HOP-62, read-out: Growth percent): 9.52%; activity at 10 µM (786-0; 786-0, read-out: Growth percent): -36%
